Measurements reported in patent publication US5824320A, “Cosmetic or pharmaceutical compositions containing, as active ingredient, mangiferine or its derivatives, in pure form or in plant extracts” (Laboratories de Biologie Vegetale Yves Rocher, priority 1994, dated 1998).

Legend:
Solubility = type: physicochemical
[1] = Anti-free radical activity (NADH/PMS superoxide, NBT reduction); type: biochemical; details: 1% solution in propylene glycol vs 0.1% rutin
From the text: Anti-Free Radical Activity (determined according to V. Ponti, M. U. Dianzani, K. Cheeseman and T. F. Slater, Cehm--Biol interaction, 23 (1978) 281-291).
Superoxide anions are generated by the reaction of NADH (Nicotinamide Adenine Dinucleotide in a reduced form) with PMS (Phenazine Methosulphate). The superoxide anions reduce NBT (Nitro Blue Tetrazolium) to diformazan which is violet-blue in colour.
The appearance of reduced NBT is monitored over time using a spectrophotometer. The results are represented in FIG. 3a.
The anti-free radical activity of the extracts is expressed as rutin equivalent for a 50% inhibition.
Anti-Free Radical Activity Determined in vitro (V. Ponti, M. U. Dianzani, K. Cheeseman and T. F. Slater, Chem. Biol. interaction, 23, 281-291, 1978).
The anti-free radical activity of the extracts is expressed in rutin equivalent for a 50% inhibition.

[2] = Photostability under continuous xenon lamp radiation (half-life time of absorption); details: aqueous solution, compared with benzophenone 4 under the same conditions
[3] = target: Clostridium histolycum collagenase (Hathewaya histolytica, UniProt Q46085); experiment: biochemical
[4] = UV light absorption spectrum; type: physicochemical
pancreatic elastase = pancreatic elastase (Sus scrofa, UniProt P00772); experiment: Anti-elastase activity (MeO Suc-Ala-Ala-Pro-Val-pNa substrate)
hyaluronidase = experiment: Anti-hyaluronidase activity (N-acetylglucosamine liberated from hyaluronic acid); type: biochemical; details: Mangifera extract 1% dry extract; heparin Sigma 10 USP/ml
Description: Anti-Hyaluronidase Activity (determined according to Jose L. Reissig, Jack L. Stominger and Luis F. Leloior, 05.12.1955).
The N-acetylglucosamine liberated after 45 minutes during the reaction of the hyaluronidase with hyaluronic acid is measured using a spectrophotometer. A process for reducing the anhydrous sugars, which in acid medium are converted to furan derivatives, is used; the said sugars react with para-dimethylaminobenzaldehyde to form a coloured complex.
The activity is expressed in μg of N-acetylglucosamine formed per minute.
The anti-hyaluronidase activity is expressed as a quantity of extract for obtaining 50% inhibition.
Anti-Hyaluronidase Activity Determined in vitro (Jose L. Reissig, Jack L. Strominger and Luis F. Leloir, J. Biol.--Chem. 217, 960-966, 1953).
The anti-hyaluronidase activity is expressed as quantity of extract for obtaining 50% inhibition. The results are plotted in Figure 5b.

pancreatic elastase, sequence (P00772 27-266): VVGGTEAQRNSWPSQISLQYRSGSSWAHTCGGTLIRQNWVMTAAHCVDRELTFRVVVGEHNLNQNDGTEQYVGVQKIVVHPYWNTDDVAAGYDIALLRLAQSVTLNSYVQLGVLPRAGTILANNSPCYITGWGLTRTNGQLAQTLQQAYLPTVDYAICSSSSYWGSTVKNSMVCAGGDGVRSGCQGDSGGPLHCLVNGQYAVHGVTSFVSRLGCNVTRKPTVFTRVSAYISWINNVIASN
Clostridium histolycum collagenase, sequence (Q46085 41-1021 limits assumed): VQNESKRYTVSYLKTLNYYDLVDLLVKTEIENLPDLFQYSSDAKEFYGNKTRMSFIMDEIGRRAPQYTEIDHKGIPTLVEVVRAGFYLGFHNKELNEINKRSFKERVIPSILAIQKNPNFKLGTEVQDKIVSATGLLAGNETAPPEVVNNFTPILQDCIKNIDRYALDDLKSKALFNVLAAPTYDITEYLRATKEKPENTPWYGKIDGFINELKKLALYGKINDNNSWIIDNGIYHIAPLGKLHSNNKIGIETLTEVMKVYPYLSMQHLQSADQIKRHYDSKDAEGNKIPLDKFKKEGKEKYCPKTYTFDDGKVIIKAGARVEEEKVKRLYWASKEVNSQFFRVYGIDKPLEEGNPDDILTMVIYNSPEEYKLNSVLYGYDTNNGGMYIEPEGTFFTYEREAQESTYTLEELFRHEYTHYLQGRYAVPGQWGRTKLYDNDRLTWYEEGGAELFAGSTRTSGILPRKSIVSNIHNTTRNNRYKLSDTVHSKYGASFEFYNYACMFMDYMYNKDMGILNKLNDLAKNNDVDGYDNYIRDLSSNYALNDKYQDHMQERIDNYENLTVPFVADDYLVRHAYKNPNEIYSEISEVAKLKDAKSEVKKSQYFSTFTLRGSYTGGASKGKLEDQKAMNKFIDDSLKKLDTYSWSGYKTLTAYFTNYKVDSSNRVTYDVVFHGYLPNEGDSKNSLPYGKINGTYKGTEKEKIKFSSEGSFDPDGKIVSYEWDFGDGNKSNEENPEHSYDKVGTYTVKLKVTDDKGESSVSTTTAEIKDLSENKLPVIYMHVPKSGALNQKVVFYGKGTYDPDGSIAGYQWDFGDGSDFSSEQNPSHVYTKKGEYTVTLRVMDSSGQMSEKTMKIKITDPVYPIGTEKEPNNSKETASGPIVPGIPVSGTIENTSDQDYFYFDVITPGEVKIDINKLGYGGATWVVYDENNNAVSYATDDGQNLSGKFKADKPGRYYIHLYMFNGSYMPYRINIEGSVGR

| Compound | solubility in alkaline liquids (Solubility; alkaline liquids) | solubility in cold water (Solubility; cold water) | anti-free radical activity relative to rutin reference solution [1] | photostability (resistance to irradiation, half-life time) [2] | IC50 [3] | UV absorption maximum corresponding to the zone of UVA rays ([4]; UVA zone) | UV absorption maximum corresponding to UVB rays ([4]; UVB zone) | phototoxicity (Phototoxicity check) | IC50 (pancreatic elastase) | half-inhibition volume IV50 (anti-hyaluronidase) (hyaluronidase) |
| --- | --- | --- | --- | --- | --- | --- | --- | --- | --- | --- |
| O=c1c2cc(O)c(O)cc2oc2cc(O)c([C@@H]3O[C@H](CO)[C@@H](O)[C@H](O)[C@H]3O)c(O)c12 [mangiferine, C-glucoside of 1,3,6,7-tetrahydroxy xanthone] | soluble | very sparingly soluble | 4 times | equally resistant to irradiation, with a very similar half-life time | ~118 µM | around 360 nm | around 320 nm | absence of phototoxicity | ~23.7 µM | – |
| heparin | – | – | – | – | – | – | – | – | – | 380 µL |
